# Results reported in PMC10584170, “Machine learning-based phenotypic imaging to characterise the targetable biology of Plasmodium falciparum male gametocytes for the development of transmission-blocking antimalarials” (PLOS Pathogens, 2023).
# Read-outs that look alike come from different tables or passages of the source.
# How the values were obtained:
# [1] = tested on: P. falciparum male gametocytes; assay: P. falciparum Dual Gamete Formation Assay (PfDGFA), male readout (exflagellation); type: cell-based, Plasmodium falciparum NF54; conditions: for Selectivity Ratio M: HepG2 Tox50 versus male IC50; for IC50: PfDGFA, 24 h incubation with gametocytes before induction, exflagellation readout, read-out: Male IC50; for HitlevelM: number of replicates with >50% inhibition in the male readout
# Outline: (§1)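 Male and female gamete formation were quantified by microscopy image analysis following 24 h incubation of mature NF54 gametocytes with compound and activation at 28°C with xanthurenic acid.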
# [2] = tested on: P. falciparum female gametocytes; assay: P. falciparum Dual Gamete Formation Assay (PfDGFA), female readout (Pfs25-positive female gametes); type: cell-based, Plasmodium falciparum NF54; conditions: for Selectivity ratio F: HepG2 Tox50 versus female IC50; for HitlevelF: number of replicates with >50% inhibition in the female readout; for IC50: PfDGFA, 24 h incubation with gametocytes before induction, female gamete readout, read-out: Female IC50
# Outline: as §1
# [3] = tested on: HepG2 cells; assay: HepG2 cytotoxicity counter-screen; conditions: cytotoxic activity against HepG2 cells
# [4] = PfDGFA at 2µM, 24h preincubation with gametocytes, average of replicates
# [5] = PfDGFA at 2µM, 24h preincubation with gametocytes, replicate R1
# [6] = PfDGFA at 2µM, 24h preincubation with gametocytes, replicate R3
# [7] = PfDGFA at 2µM, 24h preincubation with gametocytes, replicate R4
# [8] = 2µM, 24h preincubation with gametocytes, average of replicates
# [9] = 2µM, 24h preincubation with gametocytes, replicate R1
# [10] = 2µM, 24h preincubation with gametocytes, replicate R3
# [11] = 2µM, 24h preincubation with gametocytes, replicate R4
# [12] = Plasmodium falciparum, 2µM, 24h preincubation with gametocytes, average of replicates, read-out: Average inhibition male (%)
# [13] = Plasmodium falciparum, 2µM, 24h preincubation with gametocytes, replicate R1, read-out: % inhibition male (individual replicates) R1
# [14] = Plasmodium falciparum, 2µM, 24h preincubation with gametocytes, replicate R2, read-out: % inhibition male (individual replicates) R2
# [15] = Plasmodium falciparum, 2µM, 24h preincubation with gametocytes, replicate R4, read-out: % inhibition male (individual replicates) R4
# [16] = Plasmodium falciparum, 2µM, 24h preincubation with gametocytes, average of replicates, read-out: Average inhibition female (%)
# [17] = Plasmodium falciparum, 2µM, 24h preincubation with gametocytes, replicate R1, read-out: % inhibition female (individual replicates) R1
# [18] = Plasmodium falciparum, 2µM, 24h preincubation with gametocytes, replicate R2, read-out: % inhibition female (individual replicates) R2
# [19] = Plasmodium falciparum, 2µM, 24h preincubation with gametocytes, replicate R3, read-out: % inhibition female (individual replicates) R3
# [20] = Plasmodium falciparum, 2µM, 24h preincubation with gametocytes, replicate R4, read-out: % inhibition female (individual replicates) R4
# [21] = Plasmodium falciparum, PfDGFA at 2µM, 24h preincubation with gametocytes, average of replicates, read-out: Average inhibition male (%)
# [22] = Plasmodium falciparum, PfDGFA at 2µM, 24h preincubation with gametocytes, replicate R1, read-out: % inhibition male (individual replicates) R1
# [23] = Plasmodium falciparum, PfDGFA at 2µM, 24h preincubation with gametocytes, replicate R2, read-out: % inhibition male (individual replicates) R2
# [24] = Plasmodium falciparum, PfDGFA at 2µM, 24h preincubation with gametocytes, replicate R3, read-out: % inhibition male (individual replicates) R3
# [25] = Plasmodium falciparum, PfDGFA at 2µM, 24h preincubation with gametocytes, replicate R4, read-out: % inhibition male (individual replicates) R4
# [26] = Plasmodium falciparum, PfDGFA at 2µM, 24h preincubation with gametocytes, average of replicates, read-out: Average inhibition female (%)
# [27] = Plasmodium falciparum, PfDGFA at 2µM, 24h preincubation with gametocytes, replicate R1, read-out: % inhibition female (individual replicates) R1
# [28] = Plasmodium falciparum, PfDGFA at 2µM, 24h preincubation with gametocytes, replicate R2, read-out: % inhibition female (individual replicates) R2
# [29] = Plasmodium falciparum, PfDGFA at 2µM, 24h preincubation with gametocytes, replicate R3, read-out: % inhibition female (individual replicates) R3
# [30] = Plasmodium falciparum, PfDGFA at 2µM, 24h preincubation with gametocytes, replicate R4, read-out: % inhibition female (individual replicates) R4
# [31] = Plasmodium falciparum, 2µM, 24h preincubation with gametocytes, replicate R3, read-out: % inhibition male (individual replicates) R3
SMILES,Selectivity Ratio M [1],IC50 [1] [nM],HitlevelM ([1]; 2µM),Selectivity ratio F [2],HitlevelF ([2]; 2µM),Tox50 [3] [µM],"inhibition at 2 µM [1, 12] [%]","inhibition at 2 µM [1, 13] [%]","inhibition at 2 µM [1, 14] [%]","inhibition at 2 µM [1, 15] [%]",IC50 ([1]; Plasmodium falciparum) [nM],"inhibition at 2 µM [2, 16] [%]","inhibition at 2 µM [2, 17] [%]","inhibition at 2 µM [2, 18] [%]","inhibition at 2 µM [2, 19] [%]","inhibition at 2 µM [2, 20] [%]",IC50 ([2]; Plasmodium falciparum) [µM],"inhibition at 2 µM [1, 21] [%]","inhibition at 2 µM [1, 22] [%]","inhibition at 2 µM [1, 23] [%]",further results
CC(C#N)Cc1ccc(-c2cnc(N)c3cc(-c4ccnc(N)n4)ccc23)cc1 (centres unmarked) [TCMDC-134547],7.45,320,4,0.24,0,2.39,,,,,,,,,,,,,,,"Average inhibition male (%) [1, 4]: 85.1%; % inhibition male (individual replicates) R1 [1, 5]: 91.7%; % inhibition male (individual replicates) R3 [1, 6]: 80.2%; % inhibition male (individual replicates) R4 [1, 7]: 74.9%; Average inhibition female (%) [2, 4]: 0.03%; % inhibition female (individual replicates) R1 [2, 5]: 9.4%; % inhibition female (individual replicates) R3 [2, 6]: -8.0%; % inhibition female (individual replicates) R4 [2, 7]: 0.7%"
COc1cccc(OC)c1CN1CCC(N(C)CCCCCCCCCN2CCC(OC(=O)Nc3ccccc3-c3ccccc3)CC2)CC1 [TCMDC-134690],1.95,1560,,0.8,,3.03,,,,,,,,,,,,,,,"Average inhibition male (%) [1, 8]: 94.5%; % inhibition male (individual replicates) R1 [1, 9]: 97.5%; % inhibition male (individual replicates) R3 [1, 10]: 83.2%; % inhibition male (individual replicates) R4 [1, 11]: 100.9%; Average inhibition female (%) [2, 8]: 49.9%; % inhibition female (individual replicates) R1 [2, 9]: 26.2%; % inhibition female (individual replicates) R3 [2, 10]: 20.7%; % inhibition female (individual replicates) R4 [2, 11]: 73.0%; IC50 [2]: 3.8 µM"
Cc1cccc(Nc2nc(N[C@@H]3CCCNC3)nc3cc[nH]c(=O)c23)c1.O=C(O)C(F)(F)F [TCMDC-134835],21.63,,,0.58,,4.45,97.3,96.8,100,94.9,210,-0.142,6.3,4.6,-8.3,-3.2,7.69,,,,
Cc1cccc(Nc2nc(NCCCCN)nc3cc[nH]c(=O)c23)c1.O=C(O)C(F)(F)F [TCMDC-134946],75.16,,4,2.87,0,28.66,,,,,380,,,,,,> 10,89.5,94.1,93.5,"inhibition at 2 µM [1, 24]: 87.3%; inhibition at 2 µM [1, 25]: 82.9%; inhibition at 2 µM [2, 26]: 9%; inhibition at 2 µM [2, 27]: 6.6%; inhibition at 2 µM [2, 28]: 23%; inhibition at 2 µM [2, 29]: 13.1%; inhibition at 2 µM [2, 30]: -6.7%"
O=C(O)C(F)(F)F.O=c1[nH]ccc2nc(N[C@@H]3CCCNC3)nc(Nc3ccc(S(=O)(=O)N4CCOCC4)cc3)c12 [TCMDC-135038],342.32,,,2.68,,21.89,97.4,93.1,99.1,98.2,60,14.1,2.2,10.6,4.3,39.1,8.17,,,,"inhibition at 2 µM [1, 31]: 99.2%"
O=C(O)C(F)(F)F.O=c1[nH]ccc2nc(N[C@@H]3CCNC3)nc(Nc3cc(Cl)cc(Cl)c3)c12 [TCMDC-135052],4.82,1530,,1.49,,7.37,,,,,,,,,,,,,,,"Average inhibition male (%) [1, 8]: 90.0%; % inhibition male (individual replicates) R1 [1, 9]: 96.4%; % inhibition male (individual replicates) R3 [1, 10]: 98.4%; % inhibition male (individual replicates) R4 [1, 11]: 88.5%; Average inhibition female (%) [2, 8]: 61.3%; % inhibition female (individual replicates) R1 [2, 9]: 75.7%; % inhibition female (individual replicates) R3 [2, 10]: 60.7%; % inhibition female (individual replicates) R4 [2, 11]: 86.1%; IC50 [2]: 4.94 µM"
COCCN(C)CCCOc1cc2c(cc1OC)ncn2-c1cc(OCc2ccccc2C(F)(F)F)c(C(N)=O)s1.Cl [TCMDC-135214],22.02,,3,1.36,0,13.65,,,,,620,,,,,,> 10,64.6,90.7,80.9,"inhibition at 2 µM [1, 24]: 65.9%; inhibition at 2 µM [1, 25]: 20.9%; inhibition at 2 µM [2, 26]: 20.2%; inhibition at 2 µM [2, 27]: 22.9%; inhibition at 2 µM [2, 28]: 10%; inhibition at 2 µM [2, 29]: 11%; inhibition at 2 µM [2, 30]: 36.6%"
COc1ccc2nc(-c3cc(-c4ccc(NC(=O)C(C)C)cc4)cnc3N)[nH]c2c1 [TCMDC-135322],19.53,,4,0.84,0,8.38,,,,,430,,,,,,> 10,72,76.6,80.3,"inhibition at 2 µM [1, 24]: 78.9%; inhibition at 2 µM [1, 25]: 52.3%; inhibition at 2 µM [2, 26]: -9%; inhibition at 2 µM [2, 27]: -9.8%; inhibition at 2 µM [2, 28]: -5.2%; inhibition at 2 µM [2, 29]: -4.1%; inhibition at 2 µM [2, 30]: -17%"
COc1ccc2nc(-c3cc(-c4ccc(NC(C)=O)cc4)cnc3N)[nH]c2c1 [TCMDC-135365],5.74,,,0.31,,3.08,,,,,540,,,,,,> 10,,,,"HitlevelM ([1]; 2µM, 24h preincubation): 3; inhibition at 2 µM ([1]; Plasmodium falciparum, 2µM, 24h preincubation with gametocytes prior to induction of gametogenesis, average of replicates, read-out: Average inhibition male (%)): 61.3%; inhibition at 2 µM ([1]; Plasmodium falciparum, 2µM, 24h preincubation with gametocytes prior to induction of gametogenesis, replicate R1, read-out: % inhibition male (individual replicates) R1): 62.6%; inhibition at 2 µM ([1]; Plasmodium falciparum, 2µM, 24h preincubation with gametocytes prior to induction of gametogenesis, replicate R2, read-out: % inhibition male (individual replicates) R2): 72.6%; inhibition at 2 µM ([1]; Plasmodium falciparum, 2µM, 24h preincubation with gametocytes prior to induction of gametogenesis, replicate R3, read-out: % inhibition male (individual replicates) R3): 63.7%; inhibition at 2 µM ([1]; Plasmodium falciparum, 2µM, 24h preincubation with gametocytes prior to induction of gametogenesis, replicate R4, read-out: % inhibition male (individual replicates) R4): 46.2%; HitlevelF ([2]; 2µM, 24h preincubation): 0; inhibition at 2 µM ([2]; Plasmodium falciparum, 2µM, 24h preincubation with gametocytes prior to induction of gametogenesis, average of replicates, read-out: Average inhibition female (%)): -1.9%; inhibition at 2 µM ([2]; Plasmodium falciparum, 2µM, 24h preincubation with gametocytes prior to induction of gametogenesis, replicate R1, read-out: % inhibition female (individual replicates) R1): -7.6%; inhibition at 2 µM ([2]; Plasmodium falciparum, 2µM, 24h preincubation with gametocytes prior to induction of gametogenesis, replicate R2, read-out: % inhibition female (individual replicates) R2): 14.6%; inhibition at 2 µM ([2]; Plasmodium falciparum, 2µM, 24h preincubation with gametocytes prior to induction of gametogenesis, replicate R3, read-out: % inhibition female (individual replicates) R3): -10.3%; inhibition at 2 µM ([2]; Plasmodium falciparum, 2µM, 24h preincubation with gametocytes prior to induction of gametogenesis, replicate R4, read-out: % inhibition female (individual replicates) R4): -4.4%"
CCS(=O)(=O)Nc1ccc2c(c1)/C(=C(/Nc1ccc(CN3CCCCC3)cc1)c1ccccc1)C(=O)N2 [TCMDC-135395],46.97,,,0.06,,0.56,91.1,87,89.8,95.2,10,-5.9,-6.3,-3.4,1.2,-15.3,> 10,,,,"inhibition at 2 µM [1, 31]: 92.4%"
